Tests used:
[1] = in vivo; cited from earlier work
[2] = system: Alzheimer's disease patients; conditions: cited from earlier work
animal models = conditions: cited from earlier work
mAChR M4 = target: T1, mAChR M4 (UniProt P08173); assay: mAChR M4 cell-based functional assay (calcium mobilization, Fluo-4, FDSS); conditions: for Emax (%)*: % ACh maximum at 30 μM; for pEC50: positive allosteric modulator activity, EC20 acetylcholine response; for pEC50 / EC50: CHO-K1 cells; for EC50: positive allosteric modulator activity: concentration-dependent increase in the EC20 acetylcholine response, >10 μM estimated for low potency (no plateau)
T1 construct: hM1 and hM4 cDNAs were purchased from Missouri S&T cDNA Resource
T1 sequence (P08173 1-479): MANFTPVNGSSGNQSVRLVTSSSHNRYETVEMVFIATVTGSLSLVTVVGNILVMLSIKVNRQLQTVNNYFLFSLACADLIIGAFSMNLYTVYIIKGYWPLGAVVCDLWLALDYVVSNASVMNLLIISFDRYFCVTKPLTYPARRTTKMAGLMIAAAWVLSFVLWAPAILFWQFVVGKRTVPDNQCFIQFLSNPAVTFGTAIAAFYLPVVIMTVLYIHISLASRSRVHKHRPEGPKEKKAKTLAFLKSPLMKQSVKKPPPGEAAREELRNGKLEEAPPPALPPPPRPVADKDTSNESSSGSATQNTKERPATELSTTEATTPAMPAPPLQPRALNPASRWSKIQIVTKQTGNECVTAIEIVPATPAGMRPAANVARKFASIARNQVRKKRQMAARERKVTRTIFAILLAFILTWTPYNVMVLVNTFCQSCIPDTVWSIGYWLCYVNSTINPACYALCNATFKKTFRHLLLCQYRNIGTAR
Procedure, shortened: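 Compound responses (11-point, 1:3 series) were followed as calcium fluorescence ratio on FDSS in Gqi5-coupled M4 CHO-K1 cells (human or rat) loaded with Fluo-4. Acetylcholine followed at EC20 (144 s) then EC80 (230 s). EC50/Emax from four-parameter logistic fits of direct, EC20-potentiating or EC80-inhibiting effects.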

| Compound | Emax (%)* (mAChR M4) [%] | pEC50 (mAChR M4) | EC50 (mAChR M4) [nM] | elevated liver transaminases, share of patients [1] | psychotic behavioral symptoms (delusions, suspiciousness, vocal outbursts, hallucinations) [2] | catalepsy (animal models; in vivo) | activity in animal models (animal models; profiles similar to known antipsychotic drugs) |
| --- | --- | --- | --- | --- | --- | --- | --- |
| Nc1c2c(nc3ccccc13)CCCC2 [tacrine] |  |  |  | about 30% |  |  |  |
| CCCCCCOc1nsnc1C1=CCCN(C)C1 [xanomeline] |  |  |  |  | reduce psychotic behavioral symptoms | without causing catalepsy | active in animal models |
| Cc1nc2sc3c(NCC4CC4)n[nH]c3c2c(C)c1Cl [Compound 14, 7-chloro-N-(cyclopropylmethyl)-6,8-dimethyl-1H-pyrazolo[3′,4′:4,5]thieno[2,3-b]pyridin-3-amine] | 69 | 5.80 | 1600 |  |  |  |  |
| Cc1cc(C)c2c(n1)sc1c(NCc3ccccc3F)nn(C)c12 [Compound 57, N-(2-fluorobenzyl)-1,6,8-trimethyl-1H-pyrazolo[3′,4′:4,5]thieno[2,3-b]pyridin-3-amine] | 70 | 6.72 | 190 |  |  |  |  |
| CC(=O)N1CCC(CNc2nn(C)c3c2sc2nc(C)cc(C)c23)CC1 [Compound 121, 1-(4-(((1,6,8-trimethyl-1H-pyrazolo[3′,4′:4,5]thieno[2,3-b]pyridin-3-yl)amino)methyl)piperidin-1-yl)ethanone] | 41 | 6.00 | 990 |  |  |  |  |
| Cc1cc(C)c2c(n1)sc1c(NCC3CC3)nn(C)c12 [Compound 30, N-(cyclopropylmethyl)-1,6,8-trimethyl-1H-pyrazolo[3′,4′:4,5]thieno[2,3-b]pyridin-3-amine] | 73 | 6.80 | 160 |  |  |  |  |
| Cc1cc(C)c2c(n1)sc1c(NC3CCSCC3)n[nH]c12 [Compound 12, 6,8-dimethyl-N-(tetrahydro-2H-thiopyran-4-yl)-1H-pyrazolo[3′,4′:4,5]thieno[2,3-b]pyridin-3-amine] | 38 | 5.36 | 4390 |  |  |  |  |
| Cc1cc(C)c2c(n1)sc1c(NC(C)C)nn(CCO)c12 [Compound 112, 2-(3-(isopropylamino)-6,8-dimethyl-1H-pyrazolo[3′,4′:4,5]thieno[2,3-b]pyridin-1-yl)ethanol] | 71 | 5.68 | 2100 |  |  |  |  |

Further lines, with some results ahead:

| Emax (%)* (mAChR M4) [%] | pEC50 (mAChR M4) | EC50 (mAChR M4) [nM] | Compound | elevated liver transaminases, share of patients [1] | psychotic behavioral symptoms (delusions, suspiciousness, vocal outbursts, hallucinations) [2] | catalepsy (animal models; in vivo) | activity in animal models (animal models; profiles similar to known antipsychotic drugs) |
| --- | --- | --- | --- | --- | --- | --- | --- |
| 27 | <5.00 | > 10000 | Cc1cc(C)c2c(n1)sc1c(NCC3CCN(C(=O)OC(C)(C)C)CC3)nn(C)c12 [Compound 122, tert-butyl 4-(((1,6,8-trimethyl-1H-pyrazolo[3′,4′:4,5]thieno[2,3-b]pyridin-3-yl)amino)methyl)piperidine-1-carboxylate] |  |  |  |  |
|  | <5.00 | > 10000 | COc1ccc(Cn2nc(N)c3sc4nc(C)c(Cl)c(C)c4c32)cc1 [Compound 161, 7-chloro-1-(4-methoxybenzyl)-6,8-dimethyl-1H-pyrazolo[3′,4′:4,5]thieno[2,3-b]pyridin-3-amine] |  |  |  |  |
|  | <5.00 | > 10000 | Cc1ccc2c(n1)sc1c(NCCC(C)C)n[nH]c12 [Compound 156, N-isopentyl-6-methyl-1H-pyrazolo[3′,4′:4,5]thieno[2,3-b]pyridin-3-amine] |  |  |  |  |

— patent US9056876B2, “Substituted 1H-pyrazolo[3′,4′,4,5]thieno[2,3-b]pyridin-3-amine analogs as positive allosteric modulators of the muscarinic acetylcholine receptor M4” (VANDERBILT UNIVERSITY, priority 2011, dated 2015)
